Reference: patent publication US8304447B2, “2-acylaminopropoanol-type glucosylceramide synthase inhibitors” (Genzyme Corporation, priority 2007, dated 2012)

The compounds below were run on GM3 (assay: GM3 Elisa assay). Details: 48 h, Table 1; B16-FO cells, 2 days incubation; read-out: IC50_uM_Mean.
Format: cell-based
In short: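 Murine B16-FO melanoma cells attached 6 h on collagen, then exposed to compounds for 2 days at 37 °C. After formaldehyde fixation, cell-surface GM3 (NeuAc) was detected by anti-GM3 IgM and peroxidase anti-mouse IgM with Quantablu fluorescence (Ex 325/Em 420).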

SMILES	IC50 [nM]
O=C(Cc1cccc(Oc2ccccc2)c1)N[C@H](CN1CCCC1)[C@H](O)c1ccc2c(c1)OCCO2 [Compound 86, N-((1R,2R)-1-(2,3-dihydrobenzo[b][1,4]dioxin-6-yl)-1-hydroxy-3-(pyrrolidin-1-yl)propan-2-yl)-2-(3-phenoxyphenyl)acetamide]	≤ 100
O=C(CCSc1ccccc1)N[C@H](CN1CCCC1)[C@H](O)c1ccc2c(c1)OCCO2 [Compound 32, N-((1R,2R)-1-(2,3-dihydrobenzo[β][1,4]dioxin-6-yl)-1-hydroxy-3-(pyrrolidin-1-yl)propan-2-yl)-3-(phenylthio)propanamide]	≤ 100
O=C(N[C@H](CN1CCCC1)[C@H](O)c1ccc2c(c1)OCCO2)[C@@H](O)Cc1ccccc1 [Compound 25, (S)—N-((1R,2R)-1-(2,3-dihydrobenzo[β][1,4]dioxin-6-yl)-1-hydroxy-3-(pyrrolidin-1-yl)propan-2-yl)-2-hydroxy-3-phenylpropanamide]	100 to 1000

The remaining lines, values ahead:

IC50 [nM]	SMILES
≤ 100	COc1ccc(C(=O)CCCC(=O)N[C@H](CN2CCCC2)[C@H](O)c2ccc3c(c2)OCCO3)cc1 [Compound 191, N-((1R,2R)-1-(2,3-dihydrobenzo[β][1,4]dioxin-6-yl)-1-hydroxy-3-(pyrrolidin-1-yl)propan-2-yl)-5-(4-methoxyphenyl)-5-oxopentanamide (2R,3R)-2,3-dihydroxysuccinate]
100 to 1000	C[C@H](NC(=O)N[C@H](CN1CCCC1)[C@H](O)c1ccc2c(c1)OCCO2)c1ccccc1 [Compound 10, 1-((1R,2R)-1-(2,3-dihydrobenzo[β][1,4]dioxin-6-yl)-1-hydroxy-3-(pyrrolidin-1-yl)propan-2-yl)-3-((S)-1-phenylethyl)urea]
100 to 1000	O=C(Nc1ccc(C(F)(F)F)cc1)N[C@H](CN1CCCC1)[C@H](O)c1ccc2c(c1)OCCO2 [Compound 81, 1-((1R,2R)-1-(2,3-dihydrobenzo[β][1,4]dioxin-6-yl)-1-hydroxy-3-(pyrrolidin-1-yl)propan-2-yl)-3-(4-(trifluoromethyl)phenyl)urea]

Same assay, conditions: 48 h, Table 2; B16-FO cells, 2 days incubation; read-out: IC50_uM_Mean

SMILES	IC50 [nM]
COc1ccc(C(=O)CCCCCC(=O)N[C@H](CN2CCCC2)[C@H](O)c2ccc(OC)cc2)cc1 [Compound 285, 7-(4-Methoxy-phenyl)-7-oxo-heptanoic acid [2-hydroxy-2-(4-methoxy-phenyl)-1-pyrrolidin-1-ylmethyl-ethyl]-amide]	≤ 100
Cc1ccc(C(=O)CCCC(=O)N[C@H](CN2CCCC2)[C@H](O)c2ccc3c(c2)OCCO3)cc1 [Compound 283, N-((1R,2R)-1-(2,3-dihydrobenzo[b][1,4]dioxin-6-yl)-1-hydroxy-3-(pyrrolidin-1-yl)propan-2-yl)-5-oxo-5-p-tolylpentanamide]	≤ 100
COc1ccc([C@@H](O)[C@@H](CN2CCCC2)NC(=O)CCCCCC(C)=O)cc1 [Compound 279]	1000 to 3000

Now from value to compound:

IC50 [nM]	SMILES
≤ 100	CCCCc1ccc([C@@H](O)[C@@H](CN2CCCC2)NC(=O)CCOc2ccc(OC)cc2)cc1 [Compound 260]
≤ 100	O=C(NCc1ccc(Cl)cc1)N[C@H](CN1CCCC1CN1CCCC1)[C@H](O)c1ccc2c(c1)OCCO2 (some centres unmarked) [Compound 244]

Same assay, conditions: Table 3 (IC 50 Values); B16-FO cells; read-out: IC50_uM_Mean

SMILES	IC50 [nM]
CCCCCCCCCCCCCCCC(=O)N[C@H](CN(C)Cc1ccccc1)[C@H](O)c1ccc2c(c1)OCCO2 [Compound 682]	3000 to 10000
O=C(CCCOc1ccc(F)cc1)N[C@H](CN1CCCC1)[C@H](O)c1ccc2c(c1)OCCO2 [Compound 566]	≤ 100
CCCCCCCC(=O)N[C@H](CN1CCCC1)[C@H](O)c1ccc(CCOC)cc1 [Compound 478]	100 to 1000
COCCOc1ccc(C(=O)CCCCC(=O)N[C@H](CN2CC[C@H](O)C2)[C@H](O)c2ccc(OCCCCF)cc2)cc1 [Compound 455]	≤ 100
COc1ccc(OCCC(=O)N[C@H](CN2CCCC2)[C@H](O)c2ccc(C)c(F)c2)cc1 [Compound 349]	100 to 1000
COc1ccc(C(=O)CCCC(=O)N[C@H](CN2CCCC2)[C@H](O)c2ccc(Cl)cc2)cc1 [Compound 383]	100 to 1000
COc1ccc(OCCC(=O)N[C@@H](CN2CCCC2)[C@H](O)c2ccc3c(c2)OCCO3)cc1 [Compound 675]	3000 to 10000
CCCOC1CN(C[C@@H](NC(=O)CCCCCC(=O)c2ccc(OC)cc2)[C@H](O)c2ccc3c(c2)OCCO3)C1 [Compound 604]	3000 to 10000
O=C(NCc1ccc(Cl)cc1)N[C@H](CN1CC[C@@H](F)C1)[C@H](O)c1ccc(OCCCCF)cc1 [Compound 735]	≤ 100
CCCCOc1ccc(CC(CN2CCCC2)NC(=O)CCCCC(=O)c2ccc(OC)cc2)cc1 (centres unmarked) [Compound 589]	1000 to 3000
CC(O)(CCCCCC(=O)N[C@H](CN1CCCC1)[C@H](O)c1ccc2c(c1)OCCO2)C1CCCCC1 (some centres unmarked) [Compound 641]	≤ 100
CCCCCCCC(=O)N[C@H](CN1CCCC1)[C@H](O)c1ccc(OC)c(C)c1 [Compound 388]	≤ 100
Cc1noc(CCCCC(=O)NC(CN2CCCC2)C(O)c2ccc3c(c2)OCCO3)n1 (centres unmarked) [Compound 652]	3000 to 10000
COc1ccc(C(=O)CCCCC(=O)N[C@H](CN2CCCC2)[C@H](O)c2ccc(OCCCOc3ccccc3F)cc2)cc1 [Compound 367]	≤ 100
CCCCCCCC(=O)N[C@H](CN1CCCC1)[C@H](O)/C=C/c1ccccc1 [Compound 397]	3000 to 10000
COc1ccc(C(=O)CCCCCC(=O)N[C@H](CN2CCCC2)C(O)C2CCCCC2)cc1 (some centres unmarked) [Compound 471]	1000 to 3000
CCCCCCCC(=O)N[C@H](Cn1ccnc1)[C@H](O)c1ccc2c(c1)OCCO2 [Compound 507]	100 to 1000
COCCOc1ccc(C(=O)CCCC(=O)N[C@H](CN2CC[C@H](O)C2)[C@H](O)c2ccc(OCCCCF)cc2)cc1 [Compound 457]	≤ 100
COc1ccc(C(=O)CCCCCC(=O)N[C@H](CN2C3CCC2CC3)[C@H](O)c2ccc3c(c2)OCCO3)cc1 [Compound 522]	≤ 100
COc1ccc(C(=O)CCCC(=O)N[C@H](CN2CCCC2)[C@H](O)c2ccc(Cl)s2)cc1 [Compound 359]	100 to 1000

More lines, now with the values ahead:

IC50 [nM]	SMILES
100 to 1000	O=C(CCCOn1nnc2ccccc21)N[C@H](CN1CCCC1)[C@H](O)c1ccc2c(c1)OCCO2 [Compound 642]
3000 to 10000	COc1ccc(OCCC(=O)N[C@H](CN2CC[C@H](F)C2)[C@H](O)c2ccc3c(c2)OCCO3)cc1 [Compound 511]
≤ 100	COc1ccc(OCCCC(=O)N[C@H](CN2CC[C@@H](F)C2)[C@H](O)c2ccc(OCCCCF)cc2)cc1 [Compound 734]
100 to 1000	COc1ccc(C(=O)CCCCCC(=O)N[C@H](CN2CCC(F)CC2)[C@H](O)c2ccc3c(c2)OCCO3)cc1 [Compound 626]
3000 to 10000	CCCCCCCC(=O)N[C@H](CN1CC[C@H](c2ccccc2)C1)[C@H](O)c1ccc2c(c1)OCCO2 [Compound 506]
100 to 1000	COc1ccc(OCCC(=O)N[C@H](CN2CCC[C@@H]2C)[C@@H](O)c2ccc3c(c2)OCCO3)cc1 [Compound 526]
3000 to 10000	CCCCCCCC(=O)N[C@H](CN1CCCC1)[C@@H](O)c1ccc2c(c1)OCCO2 [Compound 673]
3000 to 10000	COc1ccc(C(=O)CCCCCC(=O)N[C@H](CN2C(C)CCCC2C)[C@H](O)c2ccc3c(c2)OCCO3)cc1 (some centres unmarked) [Compound 602]
100 to 1000	COc1ccc(OCCC(=O)N[C@H](CN2CC[C@H](O)C2)[C@H](O)c2ccc3c(c2)OCCO3)cc1 [Compound 514]
≤ 100	COc1ccc(C(=O)CCCCCC(=O)N[C@H](CN2CCCC2)[C@H](O)c2ccc(OC)c(Cl)c2)cc1 [Compound 707]
